We go through 11 molecules from US9233946B2, “Sulfonamide compounds” (KANCERA AB, priority 2010, dated 2016).

Assay [1] relates to NUGC3 gastric tumor cell line. Nature of the assay: Inhibition of cancer cell proliferation (Sulphorhodamine B total cellular protein). It is filed as cell-based, human. The settings on record: added at 0 h and again at 48 h, total of 120 h, FIG. 1. As to the method:
To assess the antiproliferative response elicited by the compounds of the present invention in different tumour cell lines, total cellular protein in samples was quantified using the Sulphorhodamine B kit, TOX6, (Sigma-Aldrich).
Cells from selected tumour cell lines were cultured at 37° C., 5% CO2, normoxia, in DMEM/F12 medium +10% FBS. Cells were plated at a density of 6-12 000 cells/well, depending on cell-line specific size and growth characteristics, and allowed to attach overnight.
Culture media supernatants were then removed and replaced with either fresh medium or with compounds of the present invention diluted in cell culture medium to indicated concentrations, and to a maximal DMSO concentration of 0.1%. All treatments were in quadruplicate. After indicated incubation times, samples were washed with PBS and the total cellular protein in each sample was quantitated after precipitation with TCA according to the manufacturer's instructions. […] After air drying, bound dye was solubilized in 200 μL 10 mM Tris base, and the absorbance of dye was measured at a wavelength of 565 nm. To quantify growth, samples were collected also at t=0 h, and the resulting absorbance was set to 100%.
In brief, the Example 74 was added at the indicated concentrations at 0 h and again at 48 h. After a total of 120 h, the measured effect on cancer cell proliferation was quantified as described above.

The next assay relates to PANC-1 cells. Nature of the assay: Quantification of F-2,6-P2 in PANC-1 cells. The settings on record: Homo sapiens, PANC-1; read-out: IC50 based on quantification of F-2,6-P2. Format: cell-based. From the text:
(§1) The relative kinase (formation) and phosphatase (degradation) activities of the bi-functional enzymes PFKFB3 and PFKFB4 control the intracellular levels of the regulator F-2,6-P2, which acts as an allosteric activator of glycolysis. The levels of F-2,6-P2 have been determined in three different cancer cell lines (MCF-7, PANC-1 and NUGC-3) using the van Shaftingen assay. The assay protocols described under “Methods for measurement of enzymatic activity of PFKFB3 and PFKFB4, Method A” have been adapted for the measurement of the inhibitory effect of compounds on the kinase activity of the various isoforms of the bifunctional enzyme (endogenously expressed) in the different cell lines. The modifications are described in the protocol below. All reagents were purchased from commercial sources or prepared inhouse.
Cell Line B (PANC-1, Human Pancreatic Carcinoma Cell Line)
• Cells: PANC-1 (ATCC-CRL-1469). Lot. no: 58564651. • Growth medium: Dulbecco's Modified Eagle's Medium, DMEM, ATCC-30-2002 10% FBS, Invitrogen, 10106-169
Cells were seeded at a concentration of 250 000 cells/mL in 100 μL growth medium (25 000 cells/well)
Starvation medium: DMEM/F12 without phenol red and glucose free, SVA, 991373 0.25% FBS, Invitrogen, 10106-169
Induction medium: DMEM/F12 without phenol red and glucose free, SVA, 991373 0.25% FBS, Invitrogen, 10106-169 (same as starvation medium)
Cells were seeded in 96-well Corning Costar tissue culture plates (CLS3595, Sigma-Aldrich) using the concentrations specified above for the three different cell lines A-C and incubated over night at 37° C. and 5% CO2. Row A was left empty. Next day the growth medium was discarded and replaced with 100 μL starvation medium. The plates were incubated for 18 h at 37° C. and 5% CO2. After 18 h of starvation the cells were induced with 100 μL compound or control solutions. Compounds were either tested in two concentrations (50 μM and 10 μM) or in dose response curves starting from 50 μM and the final DMSO concentration in assay plates was 0.5%. Also a dose response curve of a reference inhibitor was included in row H on each plate. All compounds were tested in duplicate plates. Compounds (in 96 well CLS 3365, Sigma-Aldrich) were serial diluted in DMSO from 10 mM compound DMSO stock solutions with Janus (automated liquid handling workstation from PerkinElmer). 5 μL were transferred to a Greiner deep well plate (736-0155, VWR) with 495 μL starvation medium. The final start concentration of compounds in the dilution plate was 100 μM, 1% DMSO. For compounds tested as single points, 10 mM compound solutions were diluted five fold in DMSO to 2 mM, followed by the transfer of 5 μL to separate dilution plates with 495 μL starvation medium. The final concentration of compounds in these dilution plates were 100 or 20 μM, respectively, and final concentration of DMSO was 1%. The plates were incubated at 37° C. and 5% CO2 for 1 h, followed by the addition of 10 μL 20 mM D-glucose in starvation medium. Controls, with and without 1 mM glucose, were included in row B. The final assay volume was 210 μL per well. After 2 h of incubation at 37° C. and 5% CO2, supernatants were discarded and the cells were lysed by the addition of 25 μL 250 mM NaOH. The plates were incubated at 37° C. and 5% CO2 for 5 min followed by an addition of 75 μL MilliQ dH2O. The supernatants were further diluted with 210 μL MilliQ dH2O to a final concentration of 20 mM NaOH. 200 μL were transferred to NUNC 96-well plates (7322661, VWR) and the plates were sealed and stored at −20° C. until analysis.
(§2) The amount of F-2,6-P2 was quantified based on the coupled enzymatic reaction described by Van Schaftingen. If necessary the samples were further diluted in 20 mM NaOH before quantification. Plates stored at −20° C. were thawed and the F-2,6-P2 quantification was initiated by transferring 40 μL from each well of the NUNC plate to the corresponding position in a trans-parent 96-well SpectraPlate-MB (6005649, PerkinElmer). […]

The subject of the next assay is NUGC-3 cells. Nature of the assay: Quantification of F-2,6-P2 in NUGC-3 cells. It is filed as cell-based. Conditions: Homo sapiens, read-out: IC50 based on quantification of F-2,6-P2.
From the text: as §1
Cell Line C (NUGC-3, Human Gastric Cancer Cell Line)
Cells were seeded at a concentration of 350 000 cells/mL in 100 μL growth medium (35 000 cells/well) […]
as §2

A further assay has as its target PFKFB3 (Homo sapiens (Human), UniProt Q16875). Nature of the assay: PFKFB3 kinase activity, Method B (ADP-Glo Kinase Assay). Format: biochemical. From the text: The PFKFB3 (placenta form) and PFKFB4 were produced and purified to homogeneity from E. coli at Biovitrum and at Sprint Bioscience. All other reagents were purchased from commercial sources. Two independent methods have been used for determination of the kinase activity of PFKFB3 (Method A and Method B). Method B has been used for determination of the kinase activity of PFKFB4.
Method B: The kinase activity of the bi-functional enzyme is readily quantified based on the production of ADP and F-2,6-P2 from ATP and F6P. The ADP is detected with a kit, ADP-Glo™ Kinase Assay^(a-e), from Promega. The assay is a luminescent ADP detection assay that measures kinase activity by quantifying the amount of ADP produced during the kinase reaction. The assay is performed in two steps; first, after the kinase reaction, an equal volume of ADP-Glo™ Reagent is added to terminate the kinase reaction and deplete the remaining ATP. Second, the Kinase Detection Reagent is added to simultaneously convert ADP to ATP and allow the newly synthesized ATP to be measured using a luciferase/luciferine reaction. The light generated is measured using a luminescence counter (1450 MicroBeta TriLux).
The assay was performed in white 384-well microtiter plates (OptiPlate, 6007299, PerkinElmer) by consecutive additions of 0.1 μL of a test compound solution (serial diluted in DMSO from compound DMSO stock solution and dispensed by acoustic dispensing from UV-star 384-well plate 7360153, VWR), 5 μL of enzyme solution and 5 μL of a substrate (fructose-6-phosphate (F6P) and adenosine-5′-triphosphate (ATP)) containing solution. […] Four reference dose response curves, one of them being the QC compound, were included in row O1-2, P1-2, and serial diluted as the test compounds. The final concentrations of all reagents in a total assay volume of 10.1 μL per well were: • 50 mM Tris-HCl at pH 8.0 • 10 mM MgCl2 • 5 mM Na2HPO4 at pH 8.0 • 81.48 nM PFKFB3 or 145 nM PFKFB4 • 8 μM ATP • 100 μM F6P (acid treated and then neutralized to remove any contaminating F-2,6-P2; see Van Schaftingen, 1984) • 0.005% Tween-20 • 1 mM dithiothreitol (DTT) • A test compound at various concentrations or controls (final DMSO concentration 0.99%)
Enzyme, compounds and controls were pre-incubated at room temperature for 15 min before the addition of substrate solution. The enzymatic reaction was allowed to proceed for 20 min (PFKFB3) or 40 min (PFKFB4) at room temperature. The reaction was terminated by the addition of 10 μL of ADP-Glo™ Reagent to all wells and the plate was incubated for 40 min at room temperature. After addition of 20 μL Kinase Detection Reagent to all wells the plate was incubated for 30 min at room temperature, followed by measurement in 1450 MicroBeta TriLux. All plates were centrifuged after each addition (room temperature, short spin, 500 RPM, Megafuge 1.0 Heraeus Instruments).
The inhibitory potency or IC50 values of test compounds on the kinase activity of PFKFB3 or PFKFB4 were calculated using a four-parameter model (model 205) in XLfit (IDBS ActivityBase XE Runner).
Background: ADP-Glo first removes unused ATP, then detects ADP through luciferase.

The subject of the next assay is MCF-7 cells. Nature of the assay: Quantification of F-2,6-P2 in MCF-7 cells. The settings on record: Homo sapiens. It is filed as cell-based.
From the text: as §1
Cell Line A (MCF-7, Human Breast Adenocarcinoma Cell Line)
• Cells: MCF-7(ATCC-HBT22). Lot. no: 58469417. • Growth Medium: • Eagle's Minimum Essential Medium (EMEM), Sigma-Aldrich #M5650, 500 ml • 10% FBS, Invitrogen, 10106-169 • 5 mL 200 mM L-glutamine, Invitrogen 25030024 • 5 mL 100 mM Sodium Pyruvate, Invitrogen 11360039 • 0.5 mL 10 mg/ml Bovine Insulin, Sigma-Aldrich 10516 […]
The amount of F-2,6-P2 was quantified based on the coupled enzymatic reaction described by Van Schaftingen. If necessary the samples were further diluted in 20 mM NaOH before quantification. […]

Where two headings read alike, the source gives them in different places.

PFKFB3, sequence (Q16875 whole entry): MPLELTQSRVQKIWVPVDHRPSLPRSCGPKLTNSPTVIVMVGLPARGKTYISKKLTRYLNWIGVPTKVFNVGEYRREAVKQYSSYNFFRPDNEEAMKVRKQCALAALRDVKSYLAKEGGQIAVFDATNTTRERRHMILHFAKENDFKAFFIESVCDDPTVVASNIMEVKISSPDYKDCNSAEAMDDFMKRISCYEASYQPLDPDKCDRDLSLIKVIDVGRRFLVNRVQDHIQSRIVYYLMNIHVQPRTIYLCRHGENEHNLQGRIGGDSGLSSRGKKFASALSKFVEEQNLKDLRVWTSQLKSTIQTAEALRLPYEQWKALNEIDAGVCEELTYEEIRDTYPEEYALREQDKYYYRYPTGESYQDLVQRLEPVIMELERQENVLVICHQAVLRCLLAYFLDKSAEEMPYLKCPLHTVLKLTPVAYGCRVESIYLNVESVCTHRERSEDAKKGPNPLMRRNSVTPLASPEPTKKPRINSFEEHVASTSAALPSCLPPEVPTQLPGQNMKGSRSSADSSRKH

On to `COC(=O)c1cccc(NS(=O)(=O)c2sc3ccc(Cl)cc3c2C)c1` [Example 74, Methyl 3-{[(5-chloro-3-methyl-1-benzothien-2-yl)sulfonyl]amino}benzoate], for which the “effect on cell proliferation” value in assay [1] was “growth-inhibitory effect”. In addition, the IC50 was 3700 nM in the assay on PANC-1 cells and 4000 nM in the assay with NUGC-3 cells. On PFKFB3, `O=S(=O)(Nc1cccc(-c2nnn[nH]2)c1)c1ccc(-c2cccc(C(F)(F)F)c2)s1` [Example 99, N-[3-(1H-Tetrazol-5-yl)phenyl]-5-[3-(trifluoromethyl)phenyl]thiophene-2-sulfonamide] yielded a half-maximal inhibitory concentration (IC50) of 1420 nM. For the molecule `CSc1nccc(-c2ccc(S(=O)(=O)Nc3cccc(C(=O)O)c3)s2)n1` [Example 61, 3-[[5-(2-Methylsulfanylpyrimidin-4-yl)-2-thienyl]sulfonylamino]benzoic acid], the 50% inhibitory concentration (IC50) at PFKFB3 was 2240 nM. As for `Cc1c(S(=O)(=O)Nc2ccc(O)c(C(=O)O)c2)sc2ccc(Cl)cc12` [Example 138, 5-{[(5-Chloro-3-methyl-1-benzothiophen-2-yl)sulfonyl]amino}-2-hydroxybenzoic acid], the IC50 on PFKFB3 was 9030 nM. On to `O=C(O)c1cccc(NS(=O)(=O)c2cccc(-c3ccccc3)c2)c1` [Example 80, 3-[(Biphenyl-3-ylsulfonyl)amino]benzoic acid], for which the 50% inhibitory concentration (IC50) against PFKFB3 is 3100 nM. Take `Cc1c(S(=O)(=O)Nc2cccc(-c3cnco3)c2)sc2ccc(Cl)cc12` [Example 141, 5-Chloro-3-methyl-N-[3-(1,3-oxazol-5-yl)phenyl]-1-benzothiophene-2-sulfonamide]: the IC50 with MCF-7 cells (MCF7, read-out: IC50 based on quantification of F-2,6-P2) is 3000 nM. `O=C(O)c1cccc(NS(=O)(=O)c2cc(-c3ccccc3O)c(Cl)s2)c1O` [Example 137, 3-({[5-Chloro-4-(2-hydroxyphenyl)thiophen-2-yl]sulfonyl}amino)-2-hydroxybenzoic acid] gave a half-maximal inhibitory concentration (IC50) against PFKFB3 of 5180 nM. On the same count and under the same terms, for `O=S(=O)(Nc1cccc(-c2nnn[nH]2)c1)c1ccc(-c2cc(F)cc(F)c2)s1` [Example 23, 5-(3,5-Difluorophenyl)-N-[3-(1H-tetrazol-5-yl)phenyl]thiophene-2-sulfonamide] the value was 620 nM; for `Cc1c(S(=O)(=O)Nc2cccc(-c3nnn[nH]3)c2)sc2ccccc12` [Example 39, 3-Methyl-N-[3-(1H-tetrazol-5-yl)phenyl]-1-benzothiophene-2-sulfonamide], 280 nM. Regarding `COC(=O)c1cc(NS(=O)(=O)c2sc3ccc(Cl)cc3c2C)ccc1O` [Example 140, Methyl 5-{[(5-chloro-3-methyl-1-benzothiophen-2-yl)sulfonyl]amino}-2-hydroxybenzoate], the half-inhibitory concentration (IC50) in the assay with MCF-7 cells (MCF7, cells seeded in the starvation medium containing 25 mM glucose, 25 000 cells/well, read-out: IC50 based on quantification of F-2,6-P2) came out at 1200 nM. At PFKFB3, `Cc1ccc2sc(S(=O)(=O)Nc3cccc(-c4nnn[nH]4)c3)c(C)c2c1` [Example 33, 3,5-Dimethyl-N-[3-(1H-tetrazol-5-yl)phenyl]-1-benzothiophene-2-sulfonamide] had an IC50 of 130 nM.

A word on the IC50: it is the midpoint of a concentration-inhibition curve.
